Source: paper PMC6660985 (Biopolymers, 2019)

What was measured:
C. neoformans = settings: cited from earlier work
[1] = system: C. neoformans strain H99S; experiment: Synergy testing; format: cell-based, Cryptococcus neoformans; settings: for MIC: Cryptococcus neoformans, H99S, read-out: MIC-B, Drug Alone; for MIC-B, Combination: Drug B in combination with AEC5, average of three independent experiments; for FIC index (FICi): combination of the labelled Drug B with AEC5 (Drug A); for interaction with AEC5 by FICi: combination of the labelled drug with AEC5; for change of the drug's MIC when combined with AEC5: drop of MIC, combination versus alone

SMILES | time to reduce fungal growth by 50% (C. neoformans; clinical isolates from HIV/AIDS patients) [h] | MIC [1] [µg/mL] | MIC-B, Combination [1] [µg/mL] | FIC index (FICi) [1] | interaction with AEC5 by FICi [1] | change of the drug's MIC when combined with AEC5 [1] | concentration at which the compound becomes fungicidal (C. neoformans; against C. neoformans, primarily fungistatic below) [x MIC] | time for 50% reduction in fungal growth (C. neoformans; fluconazole against C. neoformans) [h]
C[C@@H]1[C@H](O)[C@@H](C)/C=C/C=C/C=C/C=C/C=C/C=C/C=C/[C@H](O[C@@H]2O[C@H](C)[C@@H](O)[C@H](N)[C@@H]2O)C[C@@H]2O[C@](O)(C[C@@H](O)C[C@@H](O)[C@H](O)CC[C@@H](O)C[C@@H](O)CC(=O)O[C@H]1C)C[C@H](O)[C@H]2C(=O)O [Amphotericin B, amphotericin B] | ≥ 10 | 0.0156 | 0.0156 | 1.50 | indifferent (0.5 ≤ FICi ≤ 4 indifferent) | does not change |  | 
OC(Cn1cncn1)(Cn1cncn1)c1ccc(F)cc1F [Fluconazole, fluconazole] |  | 8 | 2 | 0.75 | indifferent (0.5 ≤ FICi ≤ 4 indifferent) | four-fold | > 8 | 48 to 72
Nc1[nH]c(=O)ncc1F [Flucytosine, flucytosine] |  | 4 | 0.25 | 0.23 | synergistic (FICi < 0.5 synergistic) |  |  | 
